Laboratory results taken from patent USRE32534E, “Peptides, process for preparing the same and psychodepressant compositions containing the same” (Amano Pharmaceutical Co., Ltd., priority 1982, dated 1987).
Where a SMILES comes first, the peptide text is derived from it.

How the values were obtained:
Type in all cases: in vivo
male Wister rats [1] = test: Effect on the fixed ratio responding in rats (FR20); conditions: s.c., 15 min before a 20 min session, dose giving count 50 with control as 100
Method: Effect on the fixed ratio responding in rats
The test was conducted according to the method described in Ahlenius S. and Engel J., Eur. J. Pharm., Vol. 15, 187-192 (1971).
Male Wister rats (weighing 240 to 320 g) were placed into Skinner box (product of Bil-Medika Co., Ltd., Japan, adapted to give a feed when a lever within the box is pressed) and made to learn how to take the food. In this test, one feed was given to the rats when the lever was pressed 20 times, i.e., fixed ratio (FR) 20. The rats showing stable FR20 response were divided into groups each including four rats.
Physiological saline (containing 1 mM of sodium hydrogencarbonate) containing a specified amount of a test compound was subcutaneously given to the rats of one group in a volume of 0.1 ml/100 g. (Physiological saline containing the above-mentioned amount of sodium hydrogencarbonate only was given to the control group). Fifteen minutes after the administration, the test animals were placed in the Skinner box, and the number of times the animals took the feed for 20 minutes was counted. The dose at which the count gained by the group of animals was 50, namely, ED50 value, was determined, with the count gained by the control group calculated as 100. The same procedure as above was repeated with use of the other test compounds.

Male ICR mice = test: Inhibitory effect on hyperlocomotion induced by administration of methylphenidate; conditions: s.c. with methylphenidate 10 mg/kg s.c., 1 hour after administration, 50 with control as 100
Method: Inhibitory effect on hyperlocomotion induced by administration of methylphenidate
Male ICR mice (weighing 24 to 30 g) were divided into groups, each including 10 mice. To one group of mice were subcutaneously given 10 mg/kg of methylphenidate and 0.1 ml/10 g of a saline solution of a specified amount of a test compound and 1 mM of sodium hydrogencarbonate. One hour after the administration, the test animals were checked for hyperlocomotion, which was measured with use of a device for measuring locomotion of small animals (wherein the motion of an animal shifts the center of graavity of the device to actuate a microswitch for the measurement of the amount of motion, see Folia Pharmacologica Japonica, 74, 629-639 (1978). For a control group, the same procedure as above was repeated except that the saline solution given was free from any test compound. The concentration of the test compound at which the result achieved by the group of animals was 50, namely, ED50 value, was determined, with the measurement obtained by the control group calculated as 100. The other compounds were tested in the same manner as above.

Male ddy mice [2] = test: Effect on climbing behavior induced by apomorphine (Pharmacological Test 7); conditions: control 9.8 ± 0.7
Method: Effect on climbing behavior induced by apomorphine
Male ddy mice (weighing 20 to 30 g) were used, with 10 mice in each group. Each mouse was placed into a cylindrical cage, 12 cm in diameter and 14 cm in height, made up of vertical rods of 2 mm in diameter spaced apart at a distance of 10 mm in a circular arrangement. The mouse was allowed to stand therein for 2 hours. Physiological saline containing a specified amount of a test compound (and 1 mM of sodium hydrogencarbonate) was subcutaneously given to one group of mice in a volume of 1 ml/10 g. (The same dose of saline only was given to a control group). […] The test was carried out in soundproof compartments.
0: All the four legs are on the floor.
2: At least three legs are on rods.
The other compounds were tested in the same manner as above. The test was carried out in soundproof compartments. Student's t-test was resorted to for satistical treatment.

Male ddy mice [3] = test: Effect on hyperlocomotion induced by thyrotropin releasing hormone (TRH); conditions: s.c.
Method: Effect on hyperlocomotion induced by thyrotropin releasing hormone (TRH)
Male ddy mice (weighing 18 to 24.5 g) were used. The mice were placed into a transparent acrylic resin cage (26×37×11 cm) installed on Animex meter. Before experiment, the mice were allowed to habituate for 2 hours in the cage to fully lower the activity of the mice. After the completion of habituation, peptide A, peptide B or a diluent (physiological saline containing 1 mg/ml of sodium hydrogencarbonate) serving as a control was subcutaneously given to the mice. Thirty minutes thereafter, 5 mg/kg of TRH was intraperitoneally given to the animals. The activity counts during the period of 60 minutes following the administration of TRH was measured. Student's t-test was resorted to for statistical treatment.

male Wister rats [4] = test: Effect on metabolism of amine in the brain; conditions: 1 mg/kg s.c., 1 hour after dosing
Method: Effect on metabolism of amine in the brain
Unfasted male Wister rats (weighing 180 to 220 g) were used. Peptide A or peptide B was subcutaneously given to the animal at a dose of 1 mg/kg, the head was irradiated with microwave 1 hour thereafter, and amine metabolite was extracted from the brain. First, removed tissues were homogenized with 1M formic acid and centrifuged at 20,000×g for 20 minutes, and the supernatant (1 ml) was shaken with 5 ml of ethyl acetate. The 3,4-dihydroxyphenylacetic acid (DOPAC), homovanillic acid (HVA) and 5-hydroxyindoleacetic acid (5-HIAA) in the ethyl acetate layer were analyzed by high-performance liquid chromatography under the following conditions. Chemcosorb, 5-ODS, 20 cm×4.6 mm I.D. was used for a separating column, and a mobile phase (0.1M KH2 PO4 (pH 5.0)-5 mM EDTA-2Na-5% acetonitrile) was passed through the column at a flow rate of 1 ml/min. The electrochemical detector was set to an oxidation potential of +0.8 V.

male Wister rats [5] = test: Effect on yawning behavior induced by apomorphine; conditions: s.c.
Method: Effect on yawning behavior
Male Wister rats (weighing 200 to 300 g) were used, with 10 rats in each group. The rat was placed into a plastics cage (17×24×12 cm) with a floor mat and was then habituated for 30 minutes. Peptide A, peptide B, CCK-8 or the above-mentioned diluent serving as a control was subcutaneously given to the animal. Thirty minutes thereafter, 0.03 mg/kg of apomorphine was subcutaneously given to the animal. The number of yawns induced by apomorphine was counted during a period of 30 minutes following administration of apomorphine. The test was conducted in a soundproof compartment for each animal. Wilcoxon rank-sum test was resorted to for statistical treatment.

[6] = Induction of yawning behavior by the peptide itself; conditions: yawning thought to be induced by a reduction in the amount of dopamine
test animals = test: Induction of catalepsy in test animals

Compound | ED50, inhibition of FR20 responding (male Wister rats [1]) [mg/kg] | Effect on TRH-induced hyperlocomotion (in words) (Male ddy mice [3]) | Increase of DOPAC content in hypothalamus (male Wister rats [4]) | Influence on content of metabolite (DOPAC, HVA, 5-HIAA) in frontal cortex, limbic forebrain, and striatum (male Wister rats [4]) | further results
CSCC[C@H](NC(=O)[C@H](Cc1ccc(OS(=O)(=O)O)cc1)NC(=O)CCCC(=O)O)C(=O)NCC(=O)N[C@@H](Cc1c[nH]c2ccccc12)C(=O)N[C@@H](CCSC)C(=O)N[C@@H](CC(=O)O)C(=O)N[C@@H](Cc1ccccc1)C(N)=O [Peptide E, Glt--Tyr(SO3 H)--Met--Gly--Trp--Met--Asp--Phe--NH2] (HELM PEPTIDE1{[O=C(O)CCCC(=O)[*:2]].[O=C([C@H](Cc1ccc(OS(=O)(=O)O)cc1)N[*:1])[*:2]].M.G.W.M.D.F.[am]}$$$$V2.0) | 0.004 | – | – | – | –
Pht--Tyr(SO3 H)--Met--Gly--Trp--Met--Asp--Phe--NH2 [Peptide F] | 0.0167 | – | – | – | ED50, inhibition of methylphenidate-induced hyperlocomotion (Male ICR mice): 0.2513 mg/kg; Average: Mean ± S.E. (total of 7 scores), climbing behavior (Male ddy mice [2]; 0.1 mg/kg s.c.): 7.7 ± 0.6; Average: Mean ± S.E. (total of 7 scores), climbing behavior (Male ddy mice [2]; 0.3 mg/kg s.c.): 8.0 ± 0.8; Average: Mean ± S.E. (total of 7 scores), climbing behavior (Male ddy mice [2]; 1.0 mg/kg s.c.): 6.8 ± 0.8
CSCC[C@H](NC(=O)[C@H](Cc1ccc(OS(=O)(=O)O)cc1)NC(=O)[C@H](CC(=O)O)NC(=O)[C@@H]1CCC(=O)N1)C(=O)NCC(=O)N[C@@H](Cc1c[nH]c2ccccc12)C(=O)N[C@@H](CCSC)C(=O)N[C@@H](CC(=O)O)C(=O)N[C@@H](Cc1ccccc1)C(N)=O [Peptide B, pGlu--Asp--Tyr(SO3 H)--Met--Gly--Trp--Met--Asp--Phe--NH2] | – | inhibit the hyperlocomotion induced by TRH | about 60% | Neither of peptide A and peptide B was found to influence | –
CSCC[C@H](NC(=O)[C@H](Cc1ccc(OS(=O)(=O)O)cc1)NC(=O)[C@H](CC(=O)O)NC(=O)CCCC(=O)O)C(=O)NCC(=O)N[C@@H](Cc1c[nH]c2ccccc12)C(=O)N[C@@H](CCSC)C(=O)N[C@@H](CC(=O)O)C(=O)N[C@@H](Cc1ccccc1)C(N)=O [Peptide A, Glt--Asp--Tyr(SO3 H)--Met--Gly--Trp--Met--Asp--Phe--NH2] | – | inhibit the hyperlocomotion induced by TRH | about 60% | Neither of peptide A and peptide B was found to influence | –
CSCC[C@H](NC(=O)[C@H](Cc1ccc(OS(=O)(=O)O)cc1)NC(=O)[C@@H](N)CC(=O)O)C(=O)NCC(=O)N[C@@H](Cc1c[nH]c2ccccc12)C(=O)N[C@@H](CCSC)C(=O)N[C@@H](CC(=O)O)C(=O)N[C@@H](Cc1ccccc1)C(N)=O [CCK-8, Asp--Tyr(SO3 H)--Met--Gly--Trp--Met--Asp--Phe--NH2] | – | – | – | – | Effect on yawning behavior induced by apomorphine (in words) (male Wister rats [5]): is not inhibited by CCK-8; Induction of yawning behavior (in words) [6]: induces no yawning behavior whatsoever; Induction of catalepsy (side effect, in words) (test animals): induces catalepsy
